The values below come from patent EP2948433B1, “ATGLISTATIN AS LIPASE INHIBITOR” (Technische Universität Graz, priority 2013, dated 2014).

The term IC50 denotes the concentration at which inhibition is half-maximal.

Counter-ions that a name gives are not always drawn.

Data set [1] has as its system ATGL. As to conditions: expressed ATGL (Jenkins 2004) or native ATGL in hepatocytes (Chung 2008); cited from earlier work.
Data set [2] can be described thus: Injection of the water soluble inhibitor in mice, release of FFA and glycerol. The data set is classed as in vivo. Here is the method:
(§1) As some compounds are not readily soluble in water, it may be preferable to prepare a more readily soluble form of a compound. A possible way to increase the water solubility of a compound is to generate its hydrochloride. The compound is suspended in dest. H2O and a 25 % HCl-solution is added until the solid is completely dissolved. Next, 1 M Tris-HCl-buffer is added to bring the solution to pH 7.4. This procedure yields usually good results. However, in some cases the compound may not be soluble or may precipitate when the pH of the solution elevated to bring it close to neutral pH. In this case, an alternative procedure is provided. The compound is suspended in diethyl ether and dichloromethane is added until the solid is completely dissolved. Then hydrochloric acid is added and all of the solvents are removed under reduced pressure and dried on high vacuum. The resulting colourless oil is water soluble. This procedure was followed with Atglistatin (compound 4) where NMR confirmed the structure of Atglistatin hydrochloride. The water soluble inhibitor may be injected in mice and its impact on the release of free fatty acids (FFA) and glycerol, measured.
Atglistatin (compound 4) was administrated orally by gavage in olive oil (200 µl) or by IP injection. For IP administration, the hydrochloride was generated by the addition of 25% HCl resulting in a water soluble compound. […]

Data set [3] can be described thus: Water solubility of the hydrochloride. Format: physicochemical. As to conditions: hydrochloride obtained as colourless oil. Here is the method: as §1
Data set [4] can be described thus: In vitro toxicity tests (not specified further). Format: cell-based.
The target in data set [5] is T1, recombinant ATGL (Mus musculus, UniProt Q8BJ56).
T1 construct: Strep-tag; made in house; host or cells: E. coli (XL-1), vector pASK-IBA5+; crude lysate supernatant, not purified
T1 sequence (Q8BJ56 1-486): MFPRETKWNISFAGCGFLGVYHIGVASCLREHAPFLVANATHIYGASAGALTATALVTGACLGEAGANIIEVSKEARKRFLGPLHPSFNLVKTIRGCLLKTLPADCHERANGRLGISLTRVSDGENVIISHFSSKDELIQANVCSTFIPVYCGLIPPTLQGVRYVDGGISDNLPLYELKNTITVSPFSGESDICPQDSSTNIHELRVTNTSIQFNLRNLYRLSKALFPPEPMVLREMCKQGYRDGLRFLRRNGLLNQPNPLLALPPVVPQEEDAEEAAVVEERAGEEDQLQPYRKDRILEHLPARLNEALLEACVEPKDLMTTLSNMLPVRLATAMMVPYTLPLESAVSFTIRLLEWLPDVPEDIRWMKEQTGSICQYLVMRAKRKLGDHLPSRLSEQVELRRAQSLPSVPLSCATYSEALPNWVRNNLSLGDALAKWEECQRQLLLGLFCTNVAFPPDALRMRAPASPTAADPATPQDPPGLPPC
Briefly: TG hydrolase activity of E. coli lysates overexpressing recombinant strep-tagged ATGL and CGI-58, radiolabeled triolein substrate. The settings on record: inhibition of the activity of recombinant ATGL. The data set is classed as biochemical. The procedure: • Figure 1. Structure of compounds 1 to 3 (reference) and compound 4 (atglistatin) and effect on ATGL activity. For determination of lipase activity, lysates of E. coli overexpressing recombinant strep-tagged ATGL and CGI-58 were incubated with a substrate containing radiolabeled [9,10-3H(N)]-triolein. Subsequently, FA were extracted and quantified by liquid scintillation counting. Lysates of cells expressing empty vector were set as blank. Inhibitors were solubilized in DMSO and added at the indicated concentrations. DMSO alone was used as negative control. (A) Structure and IC50 values of compounds 1-4. (B) Dose-dependent inhibition of ATGL in the presence of compound 3 and 4. […] (C) Lineweaver-Burk plots for kinetic analysis of ATGL inhibition. Experiments were performed at varying concentrations of substrate (0.05 - 3 mM) in presence and absence of compound 4 (Atglistatin). […] Data are presented as mean +/-S.D. of triplicate determinations. Data for compound 4 are representative for at least three independent experiments. • Figure 2. Selectivity of Atglistatin. Lipase activity of ATGL, HSL, lipoprotein lipase, and pancreatic lipase was determined using triolein as substrate. MGL activity was detected in the presence of rac-(1,3)-monooleoylglycerol as substrate. Inhibitors were solubilized in DMSO and added at the indicated concentrations. DMSO alone was used as negative control. (A) Dose-dependent inhibition of TG hydrolase activity in WAT lysates obtained from wild-type and ATGL-ko mice. (B) Inhibition of TG hydrolase activity in wild-type WAT lysates by Atglistatin (40 µM) and by the HSL inhibitor Hi 76-0079 (20 µM). (C) Effect of Atglistatin on murine MGL (purified from E. coli), and murine HSL (overexpressed in COS-7 lysates) activity. (D) Effect of Atglistatin on purified bovine LPL (Sigma) and pancreatic lipase (from porcine pancreas, Sigma). Data are presented as mean +/- S.D. of triplicate determinations and are representative for at least three independent experiments (p < 0.05 **, p < 0.01; ***, p < 0.001). • Figure 3 Inhibition of lipolysis in 3T3-L1 adipocytes and WAT organ cultures. (A,B) Differentiated 3T3 cells were preincubated with the indicated concentrations of Atglistatin. Thereafter, the medium was replaced by DMEM containing 2% BSA (fatty acid free), 10 µM forskolin, in the presence or absence of inhibitors. The release of FA (A) and glycerol (B) in the media was determined using commercial kits. Basal FA and glycerol release (not shown) was barely detectable under the applied conditions. Data are presented as mean +/- SD and are representative for 2 independent experiments. (C-F) Effect of Atglistatin on WAT basal (C, D) and forskolin-stimulated (E, F) lipolysis. Adipose tissue pieces (∼15 mg, n=5 for each concentration) of wild-type mice were cultured for 8 h in DMEM containing 2 % FA-free BSA and the indicated concentrations of Atglistatin. Subsequently, the medium was replaced by identical fresh medium and samples were collected after incubation for another hour in the presence or in the absence of 10 µM forskolin. Atglistatin was solubilized in DMSO and DMSO alone was used as negative control. Data are presented as mean +/- S.D. (*, p < 0.05 **, p < 0.01; ***, p < 0.001). • Figure 4 Inhibition of lipolysis in vivo. […] At the indicated timepoints blood was taken retroorbitally and plasma parameters were measured using commercial kits. […] 8 h after gavage blood was taken retroorbitally and plasma parameters were measured using commercial kits. […]

Turning to `O=C1O/C(=C/Br)CC[C@@H]1c1cccc2ccccc12` [(R)-Bromoenol lactone], in data set [1], the ATGL inhibitory activity result was “has been demonstrated”.
Consider `CN(C)C(=O)Nc1cccc(-c2ccc(N(C)C)cc2)c1` [Atglistatin hydrochloride], for which the “release of free fatty acids (FFA) and glycerol after injection” value in data set [2] is “reduction in the release of free fatty acids (FFA) and glycerol”. In addition, the water solubility result in data set [3] is given as “water soluble”.
Consider `CCOC(=O)c1nn(-c2ccc(OCC)cc2)cc1O` [Compound 1, Ethyl 1-(4-ethoxyphenyl)-4-hydroxy-1H-pyrazole-3-carboxylate], for which, in data set [4], the “toxicity in in vitro tests” value is “some limited toxicity”.
Turning to `CCOC(=O)c1ccn(-c2ccc(OCC)cc2)n1` [Compound 2, Ethyl 1-(4-ethoxyphenyl)-1H-pyrazole-3-carboxylate, reference compound], the “toxicity in in vitro tests” value in data set [4] was “some limited toxicity”. Besides, in data set [5], the IC50 was 40 µM.
On to `CCOC(=O)c1cccc(-c2ccc(OCC)cc2)c1` [Compound 3, Ethyl 4'-ethoxybiphenyl-3-carboxylate, reference compound], for which the IC50 in data set [5] is 12 µM.
